This is an account of results in ChEMBL document CHEMBL4732254, “Novel monocyclic amide-linked phenol derivatives without mitochondrial toxicity have potent uric acid-lowering activity” (Bioorg Med Chem Lett, 2021).

Data set [1] in a line: Hepatotoxicity assessed as induction of mitochondrial (unknown origin) toxicity by measuring mitochondrial inhibitory activity. The note with it: mitochondria (unknown origin).
The target of data set [2] is T1, Solute carrier family 22 member 12 (Homo sapiens, UniProt Q96S37).
T1 sequence (Q96S37 whole entry): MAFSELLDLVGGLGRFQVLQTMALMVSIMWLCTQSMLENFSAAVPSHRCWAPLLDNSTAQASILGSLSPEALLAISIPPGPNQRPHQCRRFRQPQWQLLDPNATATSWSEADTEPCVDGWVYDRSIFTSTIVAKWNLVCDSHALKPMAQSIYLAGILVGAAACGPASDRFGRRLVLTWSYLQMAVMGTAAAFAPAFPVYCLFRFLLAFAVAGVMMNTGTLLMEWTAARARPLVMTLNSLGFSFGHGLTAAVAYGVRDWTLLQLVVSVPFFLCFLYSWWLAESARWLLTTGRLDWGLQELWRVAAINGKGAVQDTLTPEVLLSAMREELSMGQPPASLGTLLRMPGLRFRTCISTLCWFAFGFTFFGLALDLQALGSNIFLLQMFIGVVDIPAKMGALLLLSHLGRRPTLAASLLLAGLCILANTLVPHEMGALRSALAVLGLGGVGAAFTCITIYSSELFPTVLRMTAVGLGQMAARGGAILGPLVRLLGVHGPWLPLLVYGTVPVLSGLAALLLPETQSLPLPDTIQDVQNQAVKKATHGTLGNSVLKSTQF
As to the kind of experiment: Inhibition of URAT1 (unknown origin)-mediated uric acid uptake at 3 uM relative to control.

Data set [3] can be described thus: Hepatotoxicity assessed as induction of mitochondrial (unknown origin) toxicity by measuring mitochondrial inhibitory activity at 100 uM relative to control. The note with it: mitochondria (unknown origin).
Data set [4] can be described thus: Inhibition of uric acid uptake in human RPTEC. The class given is functional, tissue-based.
A short description of data set [5]: Drug excretion in rat urine at 3 mg/kg, po measured for 4 hrs. Format: ADME, organism-based. The note with it: read-out: Drug excretion.
The nature of data set [6]: Cmax in rat at 3 mg/kg, po. Format: ADME, organism-based. Also on record: route oral, dose 3 mg/kg. The note with it: in vivo.
In the next data set the target is Cytochrome P450 2C9 (Homo sapiens, UniProt P11712). As to the kind of experiment: Inhibition of CYP2C9 (unknown origin). Format: ADME.
Chain of Cytochrome P450 2C9 (P11712 whole entry): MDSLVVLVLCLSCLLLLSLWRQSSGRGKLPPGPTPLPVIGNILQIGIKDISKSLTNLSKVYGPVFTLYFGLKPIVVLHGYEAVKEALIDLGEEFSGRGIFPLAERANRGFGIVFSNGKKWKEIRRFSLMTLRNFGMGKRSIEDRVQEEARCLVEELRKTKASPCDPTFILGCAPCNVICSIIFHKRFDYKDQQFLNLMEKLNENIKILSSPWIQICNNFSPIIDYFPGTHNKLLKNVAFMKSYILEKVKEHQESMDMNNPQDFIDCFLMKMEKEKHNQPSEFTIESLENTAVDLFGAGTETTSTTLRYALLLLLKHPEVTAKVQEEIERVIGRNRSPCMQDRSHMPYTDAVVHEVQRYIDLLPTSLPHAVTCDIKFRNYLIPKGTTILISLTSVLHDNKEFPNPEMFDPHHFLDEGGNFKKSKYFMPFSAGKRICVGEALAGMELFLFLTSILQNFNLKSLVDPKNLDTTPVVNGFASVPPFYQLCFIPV
For a further data set, the system named is Sapajus apella. As to the kind of experiment: Uricosuric activity in Cebus apella assessed as decrease in plasma urate level at 300 mg/kg, po measured for 24 hrs. The class given is functional, organism-based.

Active and inactive are the calls of the source. No cut-off for these calls is given here.

What is called IC50 is the concentration that gives 50% inhibition. Turning to `O=C(C1=CCCC1)c1cc(Br)c(O)c(Br)c1`, the IC50 in data set [1] is 6.6 µM.
A word on the inhibition: it is the relative decrease from the control value, in per cent. Regarding `N#Cc1cc(C(=O)N2CC=CC2)cc(Cl)c1O`, the inhibition at 3 µM in data set [2] amounted to 66%. In addition, the inhibition at 100 µM in data set [3] was 5%. The same compound registered an IC50 in data set [4] above 1000 µM.
Turning to `Cc1cc(C(=O)N2CC=CC2)cc(C#N)c1O`, the inhibition at 3 µM in data set [2] turned out to be 25%. Moreover, in data set [3], the inhibition at 100 µM is -10%. In data set [4], this compound registered an IC50 above 1000 µM.
For the compound `CC(C)(C)c1cc(C(=O)N2CCC2)cc(C#N)c1O`, in data set [2], the inhibition at 3 µM is 71%. The inhibition at 100 µM in data set [3] amounted to 41%. This compound showed an IC50 in data set [4] above 1000 µM.
For `CC(C)(C)c1cc(C(=O)N2CCSC2)cc(C#N)c1O`, in data set [2], the inhibition at 3 µM stood at 92%. Besides, the inhibition at 100 µM in data set [3] turned out to be 77%. In addition, the IC50 in data set [4] was 257 µM; in data set [1] it was 27 µM.
Broadly, the Cmax is the highest concentration seen after dosing. Turning to `CC1=CCN(C(=O)c2cc(C#N)c(O)c(C(F)(F)F)c2)C1`, the inhibition at 3 µM in data set [2] turned out to be 88%. Moreover, the inhibition at 100 µM in data set [3] came to 9%. The dose excreted at 4 h in data set [5] turned out to be 10%. In addition, the IC50 in data set [4] amounted to 137 µM; on Cytochrome P450 2C9, 94 µM. The Cmax in data set [6] came to 2220 ng/mL.
In the case of `N#Cc1cc(C(=O)N2CC=CC2)cc(C2CC2)c1O`, in data set [2], the inhibition at 3 µM was determined as 69%. In addition, the inhibition at 100 µM in data set [3] is -7%. The IC50 in data set [4] is above 1000 µM.
Consider `CCc1cc(C(=O)N2CC=CC2)cc(C#N)c1O`, for which, in data set [2], the inhibition at 3 µM was found to be 54%. The inhibition at 100 µM in data set [3] came to 17%. The IC50 is above 1000 µM in data set [4] and above 100 µM in data set [1].
With `CSc1cc(C(=O)N2CC=CC2)cc(C#N)c1O`, in data set [2], the inhibition at 3 µM stood at 58%. The inhibition at 100 µM in data set [3] is 6%. Further, the IC50 in data set [4] is above 1000 µM.
As for `CCc1cc(C(=O)N2CCSC2)cc(C#N)c1O`, in data set [2], the inhibition at 3 µM is 67%. The inhibition at 100 µM in data set [3] is 25%. Also, the dose excreted at 4 h in data set [5] was determined as 9.5%. In addition, in data set [4], inhibition was half-maximal at 124 µM (IC50).
Take `CCc1cc(C(=O)n2cccc2)cc(C#N)c1O`: the inhibition at 3 µM in data set [2] stood at 83%. Moreover, the IC50 is above 1000 µM in data set [4] and 6.7 µM in data set [1].
With `O=C(C1=CCCC1)c1cc(Cl)c(O)c(Cl)c1`, the concentration for half-maximal inhibition (IC50) in data set [1] was 10 µM.
For the compound `CCc1oc2ccccc2c1C(=O)c1cc(Br)c(O)c(Br)c1` [BENZBROMARONE], the inhibition at 3 µM in data set [2] is 91%. Also, the IC50 in data set [4] was determined as 6.8 µM; in data set [1], 3.1 µM.
For `N#Cc1cc(C(=O)N2CC=CC2)cc(I)c1O`, the inhibition at 3 µM in data set [2] was determined as 79%. For the same compound, in data set [3], the inhibition at 100 µM was 8%. The same compound showed an IC50 in data set [4] above 1000 µM.
Consider `N#Cc1cc(C(=O)N2CC=CC2)cc(C(F)(F)F)c1O`, for which the inhibition at 3 µM in data set [2] is 83%. For the same compound, the inhibition at 100 µM in data set [3] is -1%. Moreover, in data set [5], the dose excreted at 4 h is 23%. Further, the figures for the IC50 (in data set [4]; on Cytochrome P450 2C9) were 818 µM and 52 µM, respectively. For the same compound, the concentration in data set [6] peaked (Cmax) at 2610 ng/mL. The result in the data set with Sapajus apella was Active.
Consider `N#Cc1cc(C(=O)N2CC=CC2)cc(Br)c1O`, for which, in data set [2], the inhibition at 3 µM turned out to be 69%. In data set [3], the inhibition at 100 µM came to 0%. The IC50 in data set [4] was 747 µM.
For the compound `N#Cc1cc(C(=O)N2CCS(=O)(=O)C2)cc(C(F)(F)F)c1O`, in data set [2], the inhibition at 3 µM turned out to be 55%. In data set [3], the inhibition at 100 µM is -3%. In data set [4], the IC50 stood at 272 µM.
`CCCc1cc(C(=O)N2CC=CC2)cc(C(F)(F)F)c1O`: the inhibition at 3 µM in data set [2] was 49%. For the same compound, the inhibition at 100 µM in data set [3] is 47%. In data set [4], this compound came in with a half-inhibitory concentration (IC50) of 903 µM.
As to `O=C(c1cc(Cl)c(O)c(Cl)c1)N1CS(=O)(=O)c2ccccc21` [DOTINURAD], inhibition on Cytochrome P450 2C9 was half-maximal at 5.7 µM (IC50).
`N#Cc1cc(C(=O)N2CCSC2)cc(C(F)(F)F)c1O`: the inhibition at 3 µM in data set [2] was found to be 84%. The inhibition at 100 µM in data set [3] is 29%. Further, the dose excreted at 4 h in data set [5] was 9%. The IC50 in data set [4] is 202 µM; at Cytochrome P450 2C9, above 100 µM. Further, in data set [6], the concentration peaked (Cmax) at 3700 ng/mL.
`CC(C)(C)c1cc(C(=O)N2CC=CC2)cc(C#N)c1O`: the inhibition at 3 µM in data set [2] amounted to 92%. For the same compound, the inhibition at 100 µM in data set [3] was 60%. In addition, the IC50 in data set [4] is 311 µM; in data set [1], 64 µM.
For `O=C(c1cc(Br)c(O)c(Br)c1)N1CC=CC1`, the inhibition at 100 µM in data set [3] came to 22%. Besides, the IC50 in data set [1] was above 100 µM.
Turning to `CC(C)(C)c1cc(C(=O)N2CCCC2)cc(C#N)c1O`, in data set [2], the inhibition at 3 µM came to 84%. Further, the inhibition at 100 µM in data set [3] was found to be 22%. The IC50 in data set [4] is above 1000 µM; in data set [1] it was above 100 µM.
Take `N#Cc1cc(C(=O)N2CCSC2)cc(Br)c1O`: in data set [2], the inhibition at 3 µM is 72%. For the same compound, the inhibition at 100 µM in data set [3] turned out to be 23%. In addition, in data set [4], the IC50 came out at 401 µM.
Regarding `N#Cc1cc(C(=O)N2CCC2)cc(C(F)(F)F)c1O`, the inhibition at 3 µM in data set [2] came out at 75%. Also, the inhibition at 100 µM in data set [3] came to 17%. In data set [4], this compound had an IC50 above 1000 µM.
With `N#Cc1cc(C(=O)N2CCCC2)cc(C(F)(F)F)c1O`, the inhibition at 3 µM in data set [2] came out at 66%. The inhibition at 100 µM in data set [3] is 18%. The IC50 in data set [4] was above 1000 µM.
As for `CCCc1cc(C(=O)N2CC=CC2)cc(C#N)c1O`, the inhibition at 3 µM in data set [2] turned out to be 70%. Besides, in data set [3], the inhibition at 100 µM was 7%. Besides, in data set [4], the IC50 was above 1000 µM.
Take `N#Cc1cc(C(=O)N2CCSC2)cc(C#N)c1O`: the inhibition at 3 µM in data set [2] is 62%. Besides, in data set [3], the inhibition at 100 µM was determined as 23%. In data set [4], this compound came in with an IC50 of 614 µM.
